Data reported in patent US20100029657A1, “Bridged, Bicyclic Heterocyclic or Spiro Bicyclic Heterocyclic Derivatives of Pyrazolo[1, 5-A]Pyrimidines, Methods for Preparation and Uses Thereof” (Wyeth, priority 2008, published 2010).
pIC50: −log10 of the molar value. Structures can show the parent of a compound that is named as a salt.

Each compound was assayed against T1, Flag/GST-tagged recombinant human B-Raf (Homo sapiens, UniProt P15056) (assay: B-Raf kinase assay (phosphorylation of GST-MEK1, phospho-MEK1 antibody/Europium detection)). Details: B-Raf IC50 Data for compounds of Formula A; read-out: Mean IC50.
T1 construct: Flag; GST; made in house; host or cells: Sf9 insect cells (B-Raf); E. coli (MEK1-GST)
Type: biochemical
Outline: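 Percent inhibition was calculated at each compound concentration from Europium time-resolved fluorescence (anti-phospho-MEK1, then Eu-conjugated anti-rabbit) after GST capture. The upstream kinase step used GST-MEK1 with 0.2 nM B-Raf for 45 min at room temperature in MOPS buffer, pH 7.2. It was started with a cocktail of 200 μM ATP and 40 mM MgCl2.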

T1 sequence (P15056 whole entry): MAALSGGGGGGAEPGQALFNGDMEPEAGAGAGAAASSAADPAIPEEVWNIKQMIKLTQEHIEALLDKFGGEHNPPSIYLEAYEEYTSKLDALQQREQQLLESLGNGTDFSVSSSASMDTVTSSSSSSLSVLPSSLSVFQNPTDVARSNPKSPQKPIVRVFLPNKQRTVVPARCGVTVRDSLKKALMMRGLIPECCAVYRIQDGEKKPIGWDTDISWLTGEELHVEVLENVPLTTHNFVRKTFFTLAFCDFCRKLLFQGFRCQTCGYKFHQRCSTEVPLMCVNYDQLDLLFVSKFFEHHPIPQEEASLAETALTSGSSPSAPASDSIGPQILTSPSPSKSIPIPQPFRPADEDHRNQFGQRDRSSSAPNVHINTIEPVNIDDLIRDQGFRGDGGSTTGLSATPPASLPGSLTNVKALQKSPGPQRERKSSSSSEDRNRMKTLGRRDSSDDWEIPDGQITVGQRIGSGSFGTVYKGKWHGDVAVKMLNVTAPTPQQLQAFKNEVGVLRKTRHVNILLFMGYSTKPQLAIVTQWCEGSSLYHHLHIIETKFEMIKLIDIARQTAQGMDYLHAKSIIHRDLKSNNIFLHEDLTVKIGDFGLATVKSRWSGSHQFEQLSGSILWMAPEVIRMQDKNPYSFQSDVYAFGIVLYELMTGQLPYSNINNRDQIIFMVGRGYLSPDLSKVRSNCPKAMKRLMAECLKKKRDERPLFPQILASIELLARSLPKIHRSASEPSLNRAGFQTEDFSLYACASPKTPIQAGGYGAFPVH

Row | Structure (SMILES) | pIC50
1 | CCOC(=O)N1C2CCC1CC(c1ccnc3c(-c4cccc5[nH]ncc45)c(-c4ccncc4)nn13)C2 (stereo not drawn) [Example 73, Ethyl 3-[3-(1H-indazol-4-yl)-2-pyridin-4-ylpyrazolo[1,5-a]pyrimidin-7-yl]-8-azabicyclo[3.2.1]octane-8-carboxylate] | 8.70
2 | COc1cc(-c2c(-c3ccncc3)nn3c(-c4ccc(F)cc4N4C[C@@H]5C[C@H]4CN5)ccnc23)ccc1Cl [Example 49, 7-(2-((1S,4S)-2,5-Diazabicyclo[2.2.1]heptan-2-yl)-4-fluorophenyl)-3-(4-chloro-3-methoxyphenyl)-2-(pyridin-4-yl)pyrazolo[1,5-a]pyrimidine] | 6.59
3 | CCOC(=O)N1C2CCC1CC(c1ccnc3c(-c4cccc(O)c4)c(-c4ccncc4)nn13)C2 (stereo not drawn) [Example 8, Ethyl 3-(3-(3-hydroxyphenyl)-2-(pyridin-4-yl)pyrazolo[1,5-a]pyrimidin-7-yl)-8-azabicyclo[3.2.1]octane-8-carboxylate] | 9.00
4 | c1cc(-c2c(-c3ccncc3)nn3c2nccc3[C@H]2CC[C@@H](N3C[C@@H]4C[C@H]3CO4)CC2)c2cn[nH]c2c1 [Example 154, 3-(1H-indazol-4-yl)-7-{cis-4-[(1S,4S)-2-oxa-5-azabicyclo[2.2.1]hept-5-yl]cyclohexyl}-2-pyridin-4-ylpyrazolo[1,5-a]pyrimidine] | 7.94
5 | Oc1cccc(-c2c(-c3ccncc3)nn3c(-c4ccc(NCC56CCN(CC5)CC6)nc4)ccnc23)c1 [Example 1, 3-(7-{6-[(1-Azabicyclo[2.2.2]oct-4-ylmethyl)amino]pyridin-3-yl}-2-pyridin-4-ylpyrazolo[1,5-a]pyrimidin-3-yl)phenol] | 8.70
6 | CCN1C2CCC1CC(c1ccnc3c(-c4ccc(C(F)(F)F)c5[nH]ncc45)c(-c4ccncc4)nn13)C2 (stereo not drawn) [Example 80, 7-(8-Ethyl-8-azabicyclo[3.2.1]oct-3-yl)-2-pyridin-4-yl-3-[7-(trifluoromethyl)-1H-indazol-4-yl]pyrazolo[1,5-a]pyrimidine, trifluoroacetate salt] | 7.32
7 | COc1cc(-c2c(-c3ccncc3)nn3c(C4CC5CCC(C4)N5)ccnc23)ccc1Cl (stereo not drawn) [Example 16, 7-(8-Azabicyclo[3.2.1]oct-3-yl)-3-(4-chloro-3-methoxyphenyl)-2-pyridin-4-ylpyrazolo[1,5-a]pyrimidine] | 8.05
8 | c1cc(-c2c(-c3ccncc3)nn3c(-c4ccc(N5C[C@@H]6C[C@H]5CO6)nc4)ccnc23)c2cn[nH]c2c1 [Example 201, 3-(1H-indazol-4-yl)-7-{6-[(1S,4S)-2-oxa-5-azabicyclo[2.2.1]hept-5-yl]pyridin-3-yl}-2-pyridin-4-ylpyrazolo[1,5-a]pyrimidine] | 8.08
9 | CCOC(=O)N1C2CCC1CC(c1ccnc3c(-c4cccc(NS(C)(=O)=O)c4)c(-c4ccncc4)nn13)C2 (stereo not drawn) [Example 66, Ethyl 3-(3-(3-(methylsulfonamido)phenyl)-2-(pyridin-4-yl)pyrazolo[1,5-a]pyrimidin-7-yl)-8-azabicyclo[3.2.1]octane-8-carboxylate] | 6.48
10 | c1cc(-c2c(-c3ccncc3)nn3c2nccc3[C@H]2CC[C@H](N3C[C@@H]4C[C@H]3CO4)CC2)c2cn[nH]c2c1 [Example 155, 3-(1H-indazol-4-yl)-7-{trans-4-[(1S,4S)-2-oxa-5-azabicyclo[2.2.1]hept-5-yl]cyclohexyl}-2-pyridin-4-ylpyrazolo[1,5-a]pyrimidine] | 8.46
11 | CC(=O)N1C2CCC1CC(c1ccnc3c(-c4cccc5[nH]ncc45)c(-c4ccncc4)nn13)C2 (stereo not drawn) [Example 119, 7-(8-acetyl-8-azabicyclo[3.2.1]oct-3-yl)-3-(1H-indazol-4-yl)-2-pyridin-4-ylpyrazolo[1,5-a]pyrimidine] | 8.04
12 | c1cc(-c2c(-c3ccncc3)nn3c(-c4ccc(N5CC6CCC(C5)O6)nc4)ccnc23)c2cn[nH]c2c1 [Example 200, 3-(1H-indazol-4-yl)-7-[6-(8-oxa-3-azabicyclo[3.2.1]oct-3-yl)pyridin-3-yl]-2-pyridin-4-ylpyrazolo[1,5-a]pyrimidine] | 8.24
13 | c1cc(-c2c(-c3ccncc3)nn3c(-c4coc(CN5C[C@@H]6C[C@H]5CO6)c4)ccnc23)c2cn[nH]c2c1 [Example 193, 3-(1H-indazol-4-yl)-7-{5-[(1S,4S)-2-oxa-5-azabicyclo[2.2.1]hept-5-ylmethyl]furan-3-yl}-2-pyridin-4-ylpyrazolo[1,5-a]pyrimidine] | 7.73
14 | Clc1ccc(-c2c(-c3ccncc3)nn3c(-c4ccc(N5C[C@@H]6C[C@H]5CN6)cc4)ccnc23)c2cn[nH]c12 [Example 127, 3-(7-chloro-1H-indazol-4-yl)-7-{4-[(1S,4S)-2,5-diazabicyclo[2.2.1]hept-2-yl]phenyl}-2-pyridin-4-ylpyrazolo[1,5-a]pyrimidine] | 7.50

The next lines start with the values.

Row | pIC50 | Structure (SMILES)
15 | 9.40 | CN1C[C@@H]2C[C@H]1CN2c1ccc(-c2ccnc3c(-c4ccc(F)c5[nH]ncc45)c(-c4ccncc4)nn23)cn1 [Example 42, 3-(7-Fluoro-1H-indazol-4-yl)-7-(6-((1S,4S)-5-methyl-2,5-diazabicyclo[2.2.1]heptan-2-yl)pyridin-3-yl)-2-(pyridin-4-yl)pyrazolo[1,5-a]pyrimidine]
16 | 9.22 | CN1C[C@@H]2C[C@H]1CN2c1ccc(-c2ccnc3c(-c4cccc5[nH]ncc45)c(-c4ccncc4)nn23)c(F)c1F [Example 165, 7-{2,3-difluoro-4-[(1S,4S)-5-methyl-2,5-diazabicyclo[2.2.1]hept-2-yl]phenyl}-3-(1H-indazol-4-yl)-2-pyridin-4-ylpyrazolo[1,5-a]pyrimidine]
17 | > 10.00 | CN1C[C@@H]2C[C@H]1CN2c1cc(F)c(-c2ccnc3c(-c4cccc5[nH]ncc45)c(-c4ccncc4)nn23)c(F)c1 [Example 101, 7-{2,6-difluoro-4-[(1S,4S)-5-methyl-2,5-diazabicyclo[2.2.1]hept-2-yl]phenyl}-3-(1H-indazol-4-yl)-2-pyridin-4-yl pyrazolo[1,5-a]pyrimidine]
18 | 9.30 | Fc1c(-c2ccnc3c(-c4cccc5[nH]ncc45)c(-c4ccncc4)nn23)ccc(N2C[C@@H]3C[C@H]2CN3)c1F [Example 162, 7-{4-[(1S,4S)-2,5-diazabicyclo[2.2.1]hept-2-yl]-2,3-difluorophenyl}-3-(1H-indazol-4-yl)-2-pyridin-4-ylpyrazolo[1,5-a]pyrimidine]
19 | 8.68 | O=C([C@@H]1CCCN1)N1C2CCC1CC(c1ccnc3c(-c4cccc5[nH]ncc45)c(-c4ccncc4)nn13)C2 (stereo partly drawn) [Example 129, 3-(1H-indazol-4-yl)-7-(8-L-prolyl-8-azabicyclo[3.2.1]oct-3-yl)-2-pyridin-4-ylpyrazolo[1,5-a]pyrimidine]
20 | 8.70 | CN1C[C@@H]2C[C@H]1CN2c1ccc(-c2ccnc3c(-c4cccc5[nH]ncc45)c(-c4ccncc4)nn23)cc1C(F)(F)F [Example 159, 3-(1H-indazol-4-yl)-7-{4-[(1S,4S)-5-methyl-2,5-diazabicyclo[2.2.1]hept-2-yl]-3-(trifluoromethyl)phenyl}-2-pyridin-4-ylpyrazolo[1,5-a]pyrimidine]
21 | > 9.70 | Fc1cc(N2C[C@@H]3C[C@H]2CN3)cc(F)c1-c1ccnc2c(-c3cccc4[nH]ncc34)c(-c3ccncc3)nn12 [Example 100, 7-(4-((1S,4S)-2,5-diazabicyclo[2.2.1]heptan-2-yl)-2,6-difluorophenyl)-3-(1H-indazol-4-yl)-2-(pyridin-4-yl)pyrazolo[1,5-a]pyrimidine]
22 | 8.64 | CN1C[C@@H]2C[C@H]1CN2c1ccc(-c2ccnc3c(-c4cccc5[nH]ncc45)c(-c4ccncc4)nn23)cn1 [Example 34, 3-(1H-Indazol-4-yl)-7-(6-((1S,4S)-5-methyl-2,5-diazabicyclo[2.2.1]heptan-2-yl)pyridin-3-yl)-2-(pyridin-4-yl)pyrazolo[1,5-a]pyrimidine]
23 | > 10.00 | CN1C[C@@H]2C[C@H]1CN2c1cc(F)c(-c2ccnc3c(-c4ccc(F)c5[nH]ncc45)c(-c4ccncc4)nn23)c(F)c1 [Example 110, 7-{2,6-Difluoro-4-[(1S,4S)-5-methyl-2,5-diazabicyclo[2.2.1]hept-2-yl]phenyl}-3-(7-fluoro-1H-indazol-4-yl)-2-pyridin-4-yl pyrazolo[1,5-a]pyrimidine]
24 | > 9.52 | CC(C)N1C[C@@H]2C[C@H]1CN2c1cc(F)c(-c2ccnc3c(-c4cccc5[nH]ncc45)c(-c4ccncc4)nn23)c(F)c1 [Example 169, 7-{2,6-difluoro-4-[(1S,4S)-5-isopropyl-2,5-diazabicyclo[2.2.1]hept-2-yl]phenyl}-3-(1H-indazol-4-yl)-2-pyridin-4-ylpyrazolo[1,5-a]pyrimidine]
25 | > 9.52 | Fc1cc(N2C[C@@H]3C[C@H]2CN3)cc(F)c1-c1ccnc2c(-c3ccc(F)c4[nH]ncc34)c(-c3ccncc3)nn12 [Example 109, 7-{4-[(1S,4S)-2,5-Diazabicyclo[2.2.1]hept-2-yl]-2,6-difluorophenyl}-3-(7-fluoro-1H-indazol-4-yl)-2-pyridin-4-yl pyrazolo[1,5-a]pyrimidine]
26 | 9.23 | C[N+]1([O-])C[C@@H]2C[C@H]1CN2c1ccc(-c2ccnc3c(-c4cccc5[nH]ncc45)c(-c4ccncc4)nn23)c(F)c1 (stereo partly drawn) [Example 95, 7-{2-fluoro-4-[(1S,4S)-5-methyl-5-oxido-2,5-diazabicyclo[2.2.1]hept-2-yl]phenyl}-3-(1H-indazol-4-yl)-2-pyridin-4-ylpyrazolo[1,5-a]pyrimidine]

Same assay, conditions: Mean IC50 (uM), B-Raf IC50 Data for compounds of Formula A

Row | IC50 [µM] | Structure (SMILES)
27 | < 0.0003 | CN1C2CCC1CN(c1ccc(-c3ccnc4c(-c5ccc(Cl)c(O)c5)c(-c5ccncc5)nn34)cc1)C2 [Example 27, 2-Chloro-5-{7-[4-(8-methyl-3,8-diaza-bicyclo[3.2.1]oct-3-yl)-phenyl]-2-pyridin-4-yl-pyrazolo[1,5-a]pyrimidin-3-yl}-phenol]
